Assay results taken from patent US8642559B2, “C-terminal domain truncation of mGluR1α by calpain and uses thereof” (priority 2006, dated 2014).
“Also recorded” adds a separate entry of the source.

Tests used:
[1] = test system: mGluR1α; test: Glutamate/NMDA-induced C-terminal truncation of mGluR1α in cultured cortical neurons (immunoblot); format: cell-based
Source text: Total cell lysates were separated by SDS-PAGE and probed with an antibody against the carboxyl terminus (residue 1142-1160) of mGluR1α. […] Total cell lysates were probed with an anti-myc antibody. […] Total cell lysates were probed with antibodies against mGluR5, G1uR2/3 and VGluT1 respectively.
Total cell lysate was collected immediately after treatment and subjected to SDS-PAGE and immunoblotting with an antibody against the carboxyl terminus (residues 1142-1160) of mGluR1α (FIG. 2A). […] Neurons were transfected with a calcium phosphate precipitation method modified for high transfection rate (Jian et al., Gene Ther 11:1301-1311, 2004).
Cortical neurons were treated with NMDA at the indicated concentrations for 1 h or treated with NMDA (10 μM) for the indicated times. Total cell lysates were separated by SDS-PAGE and probed with antibodies against mGluR1α1142-1160, Results were normalized over control values and are means±s.e.m. of 4 experiments.
To determine whether activation of mGluR1α itself was required for the truncation, two distinct mGluR1α antagonists were applied.
To further characterize NMDA-induced mGluR1α truncation, the concentration- and time-dependencies of the effects of NMDA were studied. Cortical neurons were first incubated with different concentrations of NMDA for a fixed period of time (1 hour) (FIG. 3F). […] In a following experiment, cortical neurons were incubated with 10 μM NMDA for different durations ranging from 1 to 60 min (FIG. 3G).
Cortical neurons were treated with NMDA (10 μM, 1 h). Total cell lysates were separated by SDS-PAGE and probed with antibodies against spectrin and mGluR1α1142-1160, respectively. Only the degradation bands of spectrin (spectrin DB, at ˜145 KD) are shown. […] In FIG. 4C, purified myc-mGluR1α was digested with μ-calpain at the indicated concentrations (U/ml) for 30 min. The digested material was processed for SDS-PAGE and subjected to silver staining or immunoblots with anti-myc or anti-mGluR1α1142-1160 antibodies. […] The 1st lane was the myc-mGluR1α immunoprecipitated from 293 cells; the 2nd and 3rd lanes were immunoprecipitated myc-mGluR1α digested with indicated concentration of calpain. […] FIG. 4F is the alignment of mGluR1 (902-941) and mGluR5 (889-927) surrounding the calpain cleavage site.
In this set of experiments, we determined which protease(s) mediated NMDA-induced truncation of mGluR1α. […] Cortical neurons were pretreated with a calpain inhibitor, the cell-permeable calpain-inhibitor III, or the caspase inhibitor cpm-VAD-CHO for 2 hours and then incubated in the absence or presence of 100 µM NMDA for 1 hour. […] To further confirm calpain activation by NMDA under our experimental conditions, we determined the levels of the calpain-specific spectrin degradation fragments.

[2] = test system: myc-mGluR1α; test: Targeting of myc-mGluR1α in transfected cortical neurons after NMDA (immunostaining); format: cell-based; details: NMDA 50 μM, 1 hour; 124 out of 367 neurons
Procedure: In FIG. 7A, cortical neurons were co-transfected with DsRED and myc-mGluR1α. After 48 h, neurons were fixed and stained with anti-myc and anti-DsRED antibodies. Some of the neurons were pre-treated with NMDA (50 μM, 1 h), and recovered for 3 h after washing out NMDA before fixation. Myc-mGluR1α (upper panel) was absent in axons (arrowhead) under control conditions. After pre-treatment with NMDA (lower panel), staining of myc-mGluR1α appeared in the proximal segment of axons. In FIG. 7B, cortical neurons were co-transfected with DsRED and myc-mGluR1α. After 48 h, neurons were fixed and stained with anti-DsRED and anti-mGluR1α1142-1160 antibodies with (lower panel) or without (upper panel) pretreatment with NMDA. Staining for mGluR1α was absent from axons in both conditions. In FIG. 7C, cortical neurons were co-transfected with DsRED and myc-mGluR1α936Δ. After 48 h, neurons were fixed and stained with anti-myc and anti-DsRED antibodies. […]
Previous studies have shown that the C-terminus domain of mGluR1α is crucial for its dendritic localization. […] But in ˜34% of neurons treated with NMDA (124 out of 367 neurons counted), the N-terminal fragment of wild-type mGluR1α could be detected in axons, especially in the proximal segment, whereas immunoreactivity against the C-terminus of mGluR1α was still restricted to dendrites (FIG. 7B).

[3] = test system: cortical neurons; test: NMDA/DHPG neuronal toxicity in cortical neurons (EthD-1/Calcein AM live/dead); format: cell-based; details: 100 μM NMDA for 1 hour; 24 hours after treatment
Source text: In FIGS. 8a and b, cortical neurons were co-transfected with green fluorescent protein (GFP) and vector DNA, myc-mGluR1α or myc-mGluR1α936Δ, respectively. […] Twelve hours later, neurons were stained with EthD-1 to label dead cells. Arrowheads in FIG. 8a indicate EthD-1 positive GFP-expressing neurons. * p<0.05. FIGS. 8c and d are representative photos and bar graphs showing differential roles of endogenous mGluR1 in neuronal toxicity before and after NMDA-induced truncation. Cortical neurons were treated as indicated and were stained with EthD-1 (for dead cells) and calcein AM (for live cells) 24 hours later. * p<0.001.
We then tested whether calpain-mediated truncation of endogenous mGluR1α also alters its roles in excitotoxicity. We used NMDA to elicit mGluR1α truncation and evaluated the roles of mGluR1 in neuronal toxicity by applying DHPG before and after truncation. Fourteen DIV cortical neurons cultured on 18×18 mm coverslips were divided into 6 groups, which received the following treatments, respectively: 1) “Control”: vehicle; 2) “NMDA”: 100 μM NMDA for 1 hour; 3) “DHPG before NMDA”: DHPG, 100 μM, for 1 hour, followed by 100 μM NMDA for 1 hour; 4) “DHPG after NMDA”: NMDA, 100 μM, for 1 hour, followed by 100 μM DHPG for 1 hour; 5) “DHPG+LY before NMDA”: 100 μM DHPG was co-applied with 100 μM LY367385 for 1 hour and followed by 100 μM NMDA for 1 hour; 6) “DHPG+LY after NMDA”: NMDA 100 μM for 1 hour, followed by 100 μM DHPG co-applied with 100 μM LY367385. Twenty-four hours after treatment, all neurons were stained for 20 minutes with 0.5 μM EthD-1 to label dead cells and 2 μM Calcein AM to label live cells. After three washes with culture medium, coverslips were mounted and one microscopy photo was immediately taken from the center area of each coverslip. EthD-1 and Calcein AM positive cells on each photo were then counted. The percentage of cell death was calculated as the number of EthD-1 positive cell/(number of EthD-1 positive cell+number of Calcein AM positive cell)*100%.

[4] = test system: cultured neurons; test: Blockade of NMDA neurotoxicity in cultured neurons (live/dead cell assay); format: cell-based; details: peptide 8 μM, pretreated 90 min; NMDA 50 μM 1 h; analyzed 12 h later
Procedure: In this figure, cultured neurons were pretreated with the tat-peptide for 90 min. They were then treated with NMDA (50 μM) for 1 h. They were analyzed 12 h later by live/dead cell assay (0.5 μM EthD-1 and 2 μM Calcein AM).

[5] = test system: mGluR1α; test: In vivo truncation of mGluR1α in hippocampus after kainic acid injection; details: peptide i.p. 90 min before kainic acid 30 mg/kg s.c., mice
Procedure: (§1) The tat-peptide was injected i.p. 90 min before kainic acid injection. Note that the peptide had no effect on seizure intensity (bottom left).
The objective of this set of experiments was to verify that the feedback mechanism of the present invention could take place in vivo and participate in excitotoxicity. We used the kainic acid model of excitotoxicity, as this model has been widely used to study the mechanisms underlying in vivo excitotoxicity (Wang et al. Mol Neurobiol 31:3-16, 2005). Mice were injected with kainic acid and sacrificed at different times after injection. Levels of mGluR1α were determined in hippocampus with both Western blots and immunohistochemistry (FIG. 10).

[6] = test system: hippocampal neurons; test: Kainic acid-induced neuronal damage (silver staining) and seizures in mice; format: in vivo
Procedure: as §1
They were sacrificed after 7 days and brains processed for silver staining, a marker of cell damage. Note the heavy labeling of the pyramidal cell layer in the KA alone group.
The effect of the tat-mGluR1 peptide on kainic acid-induced neuronal damage was also evaluated.

[7] = test system: mGluR1; test: Brain membranes treated with purified calpain and calcium: mGluR1 truncation; format: biochemical; details: purified calpain, calcium
Procedure: (§2) As previously mentioned, calpain inhibitors were previously shown to exert neuroprotective effects in some models of neurodegeneration, and it could be argued that the effects of the tat-mGluR1 peptide we observed were due to some calpain inhibitor effects of the peptide. However, the inventors of the present invention have discovered that this is not likely the case. In particular, when brain membranes were treated with purified calpain in the presence of calcium, truncation of both mGluR1 and spectrin was observed. […] The inventors believe that the peptide acts as a calpain substrate competing with mGluR1 for calpain. The selective protection of tat-mGluR1 has the advantage that it may act as a selective blocking agent without disrupting calpain's other enzymatic activities. Thus, a blocking agent of the present invention will have the advantage of having reduced side-effect profile than calpain inhibitors.

[8] = test system: spectrin; test: Brain membranes treated with purified calpain and calcium: spectrin degradation; format: biochemical; details: purified calpain, calcium
Procedure: as §2

[9] = test system: cultured hippocampal slices; test: OGD-induced cell death in cultured hippocampal slices (LDH release, PI uptake); format: cell-based; details: 10 μM for 3 h before and during OGD (30 min); 3 h and 24 h after OGD
Procedure: Cultured slices were subjected to OGD for 30 min, and returned to normal glucose and oxygen conditions for 24 h. Neuronal damage was assessed by the propidium iodide (PI) uptake method, which labels damaged cells (a, b), and by LDH release in culture medium (c).
We used a well-known in vitro stroke model, combined oxygen/glucose deprivation in cultured hippocampal slices, to test the idea that the mechanism we have proposed, i.e., calpain-mediated truncation of mGluR1, accounts for neuronal death in stroke. Furthermore, we tested the neuroprotective effects of the tat-mGluR1 peptide in this stroke model. In this model, cultured hippocampal slices are treated for various periods of time (30-60 min) by changing the cultured medium to a medium without glucose and replacing the normal air/5% CO2 with nitrogen. After this period of time, slices are returned to normal glucose-containing medium and exposed to air/5% CO2 and are cultured for again various periods of time. Cell death is evaluated by measuring the amount of LDH release in the medium at various times, as well as by the extent of Propidium Iodide (PI) uptake in the cells (LDH release in the medium is an index of membrane damage, as LDH is a cytoplasmic enzyme; likewise, PI is generally not taken up by cells, except if the cell membrane is severely compromised).

[10] = test system: mGluR1α; test: OGD-induced mGluR1 truncation in cultured hippocampal slices (immunoblot); format: cell-based; details: longer OGD (50-min), 6 or 24 hours recovery
Procedure: Cultured hippocampal slices were subjected to 50-min OGD and returned to normal culture condition for another 6 or 24 hours.

Molecule | minimum time required to induce truncation ([1]; 10 μM NMDA) [min] | treatment time after which truncation was maximal ([1]; 10 μM NMDA) [min] | EC50 ([1]; 1 hour incubation) [µM] | minimum concentration required to induce a significant mGluR1α truncation ([1]; 1 hour incubation) [µM] | neurons with N-terminal fragment of mGluR1α detected in axons [2] [%] | cell death [3] [%] | prevention of NMDA-mediated neurotoxicity [4] | reduction of kainic acid-induced mGluR1 truncation [5] | effect on kainic acid-induced neuronal damage (silver staining of pyramidal cell layer) ([6]; peptide 100 mg/kg i.p. 90 min before kainic acid 30 mg/kg s.c., 7 days) | effect on severity or duration of kainic acid-induced seizures ([6]; peptide i.p. 90 min before kainic acid) | prevention of calpain-mediated mGluR1 truncation [7] | prevention of calpain-mediated spectrin degradation [8] | neuroprotection assessed with LDH release [9] | neuroprotection assessed with PI uptake [9] | block of OGD-induced mGluR1 truncation [10] | block of OGD-induced mGluR1 truncation ([10]; listed as TAT-mGluR1α fusion peptide)
CN[C@H](CC(=O)O)C(=O)O [NMDA] | 5 | 20 | ~10 | 10 | ~34 | 37 |  |  |  |  |  |  |  |  |  | 
YGRKKRRQRRRVIKPLTKSYQGSGK [tat-mGluR1 peptide] |  |  |  |  |  |  | almost completely prevented | significantly reduced | dramatically reduced; also recorded: significantly reduced | did not influence | prevented | not | complete neuroprotection | complete neuroprotection | almost completely blocked | partially restored
